Experimental findings from patent US11730712B2, “Functionalized long-chain hydrocarbon mono- and di-carboxylic acids and derivatives thereof, and their use for the prevention or treatment of disease” (ESPERVITA THERAPEUTICS, INC., priority 2021, dated 2023) are described below.

One series concerns Hep3B cells. In words: Hep3B cell proliferation. Format: cell-based. Particulars: with or without regorafenib (1.5 μM). An excerpt: FIG. 36 show anti-proliferative effect of illustrative compounds of the invention in Hep3B cells.
Each bar represents the mean±the SEM, n=5. *p<0.03, **p<0.002, ***p<0.0002, ****p<0.0001, One-way ANOVA followed by Tukey's multiple comparison.

Series [1] has as its system Hepa1-6 cells. In words: Hepa1-6 cell proliferation. The format is cell-based. To be noted: with or without regorafenib (5 μM). From the text: FIG. 37 show anti-proliferative effect of illustrative compounds of the invention in Hepa1-6 cells.
For series [2], the system named is Hepa1-6 cells. The series can be described thus: Drug interaction (combination) in Hepa1-6 cell proliferation. The format is cell-based. The procedure:
FIGS. 42A-42B show drug interaction effect of Compound I-32 (FIG. 42A) and Compound I-1 (FIG. 42B) in combination with regorafenib in Hepa1-6 cell proliferation. In FIG. 42A, “1+0.05 (μM)” means 1 μM Compound I-32+0.05 μM regorafenib, etc. In FIG. 42B, “1+0.05 (μM)” means 1 μM Compound I-1+0.05 μM regorafenib, etc.
In FIG. 46A, “1+0.05 (μM)” means 1 μM Compound I-1+0.05 μM sorafenib, etc. […] In FIG. 46B, “1+0.3 (μM)” means 1 μM Compound I-1+0.3 μM lenvatinib, etc. […] In FIG. 46C, “1+0.05 (μM)” means 1 μM Compound I-32+0.05 μM sorafenib, etc. […] In FIG. 46D, “1+0.3 (μM)” means 1 μM Compound I-32+0.3 μM lenvatinib, etc.

Series [3] deals with mouse primary hepatocytes. The series can be described thus: 14C-acetate incorporation into total lipids in primary mouse hepatocytes. Format: cell-based. Particulars: Hepatocyte, 4-hour period, read-out: IC50 in μM, inhibition of 14C-acetate incorporation in total lipids. The procedure:
After perfusion, collagen digested liver cells were re-suspended in William's E media (11 mM glucose) (Gibco) supplemented with 10% fetal bovine serum (FBS) (Gibco), 2 mM L-glutamine (Gibco) and 1% Antibiotic-Antimycotic (Gibco) mixture and seeded in white opaque 96-well plates. On the following day, the cells were serum-starved for 2 hours, then treated with 0 μM, 0.1 μM, 0.3 μM, 0.5 μM, 1 μM, 3 μM, 10 μM, and 100 μM of Compound I-32, Compound I-1, or Compound III-1 or Reference Compound (e.g., Compounds A-E and bempedoic acid) in the presence of ^14C-Acetate (1 μCi/ml, PerkinElmer). Each of Compound I-32, Compound I-1, Compound III-1, and Reference Compound was solubilized in 100% DMSO to a final concentration of 100 mM stock solution. In the experimental condition, the stock solution was diluted in serum free media (William's E media (11 mM glucose) (Gibco), 2 mM L-glutamine (Gibco) and 1% Anti biotic-Antimycotic) to yield the desired concentration of each compound. […] After 4 hours of treatment, the plates were washed two times with PBS (×1) and 100 μL microscint fluid (Microscint O, part #601361) was added in each well. Plates were wrapped with aluminum foil and were shaken at 250 rpm for 2 h. After 2 h of shaking, ^14C incorporation into lipid was determined by liquid scintillation counting using a TopCount NXT Microplate Scintillation and Luminescence Counter (Perkin Elmer).
The effects of Compound I-32. Compound I-1, and Compound III-1 on mouse primary hepatocyte lipogenesis are represented in Table 1. Each Compound was assayed at a concentration of 0 μM (vehicle control), 0.1 μM, 0.3 μM, 0.5 μM, 1 μM, 3 μM, 10 μM, and 100 μM, unless otherwise noted. Statistically significant inhibition was determined by one-way ANOVA and Dennett's post hoc test where appropriate. […] IC50 values were determined by nonlinear regression. All statistical analyses were carried out using GraphPad Prism 8 software. A p-value of less than or equal 0.05 was considered significant.

Series [4] in a line: Toxicokinetics in female rat plasma (4-day oral gavage study, Day 1). Format: in vivo. Particulars: for dose proportionality of increases in mean Cmax and AUC0-24: 100 to 300 mg/kg/day. The procedure: Bioanalytical and Toxicokinetic Analyses. Blood samples (approximately 0.3 mL) were collected from nonfasted toxicokinetic animals via a jugular vein on Day 1 of the dosing phase, as indicated in the following table. Samples were collected predose and approximately 1, 2, 4, and 24 hours postdose.
Blood was collected into tubes containing potassium (K2) EDTA as the anticoagulant. Samples were maintained on chilled cryoracks and were centrifuged within 1 hour of collection. Plasma was harvested into two approximately equal aliquots and stored on dry ice until placed in a freezer, set to maintain −60 to −80° C., until analyzed. Plasma samples were analyzed for Compound I-1 and Compound I-32 content using a generic Tier 1 qualified liquid chromatography-tandem mass spectrometry (LC-MS/MS) method.
In-Life Phase. Animals were dosed once daily for up to 4 days via oral gavage at a volume of 10 mL/kg. Animals in Group 2 and 3 were administered Compound I-1. Animals in Group 4 and 5 were administered Compound I-32. The control article for Group 1 was 1.5% (w/v) carboxymethyl cellulose+0.2% (v/v) Tween 20 in deionized (DI) water. The vehicle used to prepare Compound I-1 and Compound I-32 formulations was 3% (w/v) carboxymethyl cellulose+0.4% (v/v) Tween 20 in DI water.

Setting [5] is: female rat plasma, 100 mg/kg/day oral gavage, Day 1.

Molecules are shown by their SMILES.

Take `CC(C)(CCCCc1ccc(CCCCC(C)(C)C(=O)O)cc1)C(=O)O` [Compound I-1, 6-[4-(5-carboxy-5-methylhexyl)-phenyl]-2,2-dimethylhexanoic acid]: the effect on proliferation entry in the series on Hep3B cells is recorded as “anti-proliferation effect”. For the same molecule, the effect on proliferation result with Hepa1-6 cells [1] is “anti-proliferation effect”. Also, in the series with Hepa1-6 cells [2] (at all tested concentrations), the “drug interaction effect in combination with lenvatinib” value is on record as “synergism” and the “drug interaction effect in combination with sorafenib” value was “synergism”. The IC50 in series [3] amounted to 0.46 µM. In series [4] (setting [5]), the AUC0-24 is 5,460,000 h*ng/mL and the Tmax worked out at 2.00 h. The Tmax in series [4] (female rat plasma, 300 mg/kg/day oral gavage, Day 1) is reported as 1.00 h. Also, the “dose proportionality of increases in mean Cmax and AUC0-24” value in series [4] (female rat) is listed as “less than dose proportional”.
For the molecule `CC(C)(CCCCc1cccc(CCCCC(C)(C)C(=O)O)c1)C(=O)O` [Compound I-32, 6-[3-(5-carboxy-5-methylhexyl)-phenyl]-2,2-dimethylhexanoic acid], the effect on proliferation result in the series on Hep3B cells and in the series with Hepa1-6 cells [1] was “anti-proliferation effect” throughout. Further, the “drug interaction effect in combination with lenvatinib” value with Hepa1-6 cells [2] (at all tested concentrations) is given as “synergism”. Moreover, the “drug interaction effect in combination with sorafenib” value with Hepa1-6 cells [2] (at various concentrations) is “synergism”. The IC50 in series [3] stood at 0.34 µM. The Cmax in series [4] (Wistar Han, plasma, oral, female rat, 300 mg/kg/day, Day 1, read-out: mean maximum observed concentration (Cmax)) came out at 406 µg/mL. For the same molecule, the “dose proportionality of increases in mean Cmax and AUC0-24” value in series [4] (female rat) is “approximately dose proportional”.

What is called Tmax is the time from dosing to the highest level.
